Source: patent US20220306695A1, “COMPSTATIN ANALOGUES AND THEIR MEDICAL USES” (priority 2019, published 2022)
Starred links: 1 amine or outer side, 2 acyl side, 3 side chain; linkers in the order of their positions; H or OH if unused. Positions of bridges follow the written chain, without caps; N, C: chain ends. Non-standard residues stand in square brackets, D forms with d. Residues, ends and D or L forms follow the SMILES beside them. Groups on a side chain read outwards from the residue. *: point of attachment. Trp(1-Me) = Cn1cc(C[C@H](N)C(=O)O)c2ccccc21; Abu(4-yl) = O=C([C@H](CC[*:3])N[*:1])[*:2]; C18 diacid = O=C(O)CCCCCCCCCCCCCCCCC(=O)*; γGlu = O=C(O)[C@H](CCC(=O)[*:2])N[*:1]; AEEA = NCCOCCOCC(=O)O; Aoc = NCCCCCCCC(=O)O; Sar = CNCC(=O)O

System: classical complement pathway
Experiment: In vitro haemolysis assay (inhibition of classical complement pathway)
Type: cell-based, human
Details: Table 3; human serum, sensitized sheep red blood cells; read-out: IC50[nM], in vitro analysis of inhibition of hemolysis
Procedure, shortened: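 Serially diluted compound (9 points) was preincubated 15 min at room temperature with diluted human serum, titrated per batch to give 70-90% maximal haemolysis, in Tris/casein buffer pH 7.4 with Mg2+/Ca2+. Antibody-sensitized sheep erythrocytes were then added for 30 min at 37° C, and the reaction was stopped with EDTA. Haemolysis was read at A405, with IC50 from 4PL fit.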

## CC[C@H](C)[C@@H]1NC(=O)[C@@H](NC(=O)[C@H](Cc2ccccc2)NC(=O)[C@H](CCC(=O)O)NC(=O)[C@H](CO)NC(C)=O)CSSC[C@@H](C(=O)N[C@H](C(=O)N[C@@H](CCC(=O)O)C(=O)NCC(=O)N[C@@H](CCC(=O)O)C(=O)NCCCCCCCC(=O)N[C@@H](CCC(=O)O)C(=O)N[C@@H](CCCCNC(=O)CC[C@H](NC(=O)CNC(=O)CC[C@H](NC(=O)CCCCCCCCCCCCCCCCC(=O)O)C(=O)O)C(=O)O)C(N)=O)[C@@H](C)O)NC(=O)[C@H](CCCNC(=N)N)NC(=O)[C@H](Cc2c[nH]cn2)NC(=O)[C@H](CCC(=O)O)NC(=O)CNC(=O)[C@H](Cc2c[nH]c3ccccc23)NC(=O)[C@H](CC(=O)O)NC(=O)[C@H](CCC(N)=O)NC(=O)[C@H](Cc2cn(C)c3ccccc23)NC1=O [Compound 137] (Ac-SEFCI[Trp(1-Me)]QDWGEHRCTEGE[Aoc]EK([γGlu-Gly-γGlu-C18 diacid])-NH2; disulfide 4-14)
  IC50: < 100 nM

## CC[C@H](C)[C@@H]1NC(=O)[C@@H](NC(=O)[C@H](Cc2ccccc2)NC(=O)[C@H](CCC(=O)O)NC(=O)[C@H](CO)NC(C)=O)CSSC[C@@H](C(=O)N(C)CC(=O)N[C@@H](CCC(=O)O)C(=O)NCC(=O)N[C@@H](CCC(=O)O)C(=O)NCCOCCOCC(=O)N[C@@H](CCCCNC(=O)CC[C@H](NC(=O)CNC(=O)CC[C@H](NC(=O)CCCCCCCCCCCCCCCCC(=O)O)C(=O)O)C(=O)O)C(N)=O)NC(=O)[C@H](CCCNC(=N)N)NC(=O)[C@H](Cc2c[nH]cn2)NC(=O)[C@H](CCC(=O)O)NC(=O)CNC(=O)[C@H](Cc2c[nH]c3ccccc23)NC(=O)[C@H](CC(=O)O)NC(=O)[C@H](CCC(N)=O)NC(=O)[C@H](Cc2cn(C)c3ccccc23)NC1=O [Compound 138] (Ac-SEFCI[Trp(1-Me)]QDWGEHRC[Sar]EGE[AEEA]K([γGlu-Gly-γGlu-C18 diacid])-NH2; disulfide 4-14)
  IC50: < 100 nM

## CC[C@H](C)[C@@H]1NC(=O)[C@@H](NC(=O)[C@H](Cc2ccccc2)NC(=O)[C@H](CCC(=O)O)NC(=O)[C@H](CO)NC(C)=O)CSSC[C@@H](C(=O)N(C)CC(=O)N[C@@H](CCC(=O)O)C(=O)NCC(=O)N[C@@H](CCC(=O)O)C(=O)NCCOCCOCC(=O)NCCOCCOCC(=O)NCCOCCOCC(=O)N[C@@H](CCCCNC(=O)CC[C@H](NC(=O)CNC(=O)CC[C@H](NC(=O)CCCCCCCCCCCCCCCCC(=O)O)C(=O)O)C(=O)O)C(N)=O)NC(=O)[C@H](CCCNC(=N)N)NC(=O)[C@H](Cc2c[nH]cn2)NC(=O)[C@H](CCC(=O)O)NC(=O)CNC(=O)[C@H](Cc2c[nH]c3ccccc23)NC(=O)[C@H](CC(=O)O)NC(=O)[C@H](CCC(N)=O)NC(=O)[C@H](Cc2cn(C)c3ccccc23)NC1=O [Compound 143] (Ac-SEFCI[Trp(1-Me)]QDWGEHRC[Sar]EGE[AEEA][AEEA][AEEA]K([γGlu-Gly-γGlu-C18 diacid])-NH2; disulfide 4-14)
  IC50: < 100 nM

## CC[C@H](C)[C@@H]1NC(=O)[C@@H](NC(=O)[C@H](Cc2ccccc2)NC(=O)[C@H](CCC(=O)O)NC(C)=O)CSSC[C@@H](C(=O)N(C)CC(=O)N[C@@H](CCC(=O)O)C(=O)N[C@@H](C)C(=O)NCCOCCOCC(=O)NCCOCCOCC(=O)N[C@@H](CCCCNC(=O)CC[C@H](NC(=O)CNC(=O)CC[C@H](NC(=O)CCCCCCCCCCCCCCCCC(=O)O)C(=O)O)C(=O)O)C(N)=O)NC(=O)[C@H](CCCNC(=N)N)NC(=O)[C@H](Cc2c[nH]cn2)NC(=O)[C@H](CCC(=O)O)NC(=O)CNC(=O)[C@H](Cc2c[nH]c3ccccc23)NC(=O)[C@H](CC(=O)O)NC(=O)[C@H](CCC(N)=O)NC(=O)[C@H](Cc2cn(C)c3ccccc23)NC1=O [Compound 145] (Ac-EFCI[Trp(1-Me)]QDWGEHRC[Sar]EA[AEEA][AEEA]K([γGlu-Gly-γGlu-C18 diacid])-NH2; disulfide 3-13)
  IC50: < 100 nM

## CC[C@H](C)[C@@H]1NC(=O)[C@@H](NC(=O)[C@H](Cc2ccccc2)NC(=O)[C@H](CCC(=O)O)NC(=O)CNC(C)=O)CSCC[C@@H](C(=O)N(C)CC(=O)N[C@@H](CCC(=O)O)C(=O)N[C@@H](C)C(=O)N[C@@H](CCC(=O)O)C(=O)NCCOCCOCC(=O)NCCOCCOCC(=O)N[C@@H](CCCCNC(=O)CC[C@H](NC(=O)CNC(=O)CC[C@H](NC(=O)CCCCCCCCCCCCCCCCC(=O)O)C(=O)O)C(=O)O)C(N)=O)NC(=O)[C@H](CCCNC(=N)N)NC(=O)[C@H](Cc2c[nH]cn2)NC(=O)[C@H](CCC(=O)O)NC(=O)CN(C)C(=O)[C@H](Cc2c[nH]c3ccccc23)NC(=O)[C@H](CC(=O)O)NC(=O)[C@H](CCC(N)=O)NC(=O)[C@H](Cc2cn(C)c3ccccc23)NC1=O [Compound 149, Ac-GEFA(1)I[1-Me-Trp]QDW[Sar]EHRhC(1)[Sar]EAE[Peg3][Peg3]-K([17-carboxy-heptadecanoyl][γGlu]G[γGlu])-NH2] (Ac-GEFCI[Trp(1-Me)]QDW[Sar]EHR[Abu(4-yl)][Sar]EAE[AEEA][AEEA]K([γGlu-Gly-γGlu-C18 diacid])-NH2; thioether 4-14)
  IC50: < 100 nM

## CC[C@H](C)[C@@H]1NC(=O)[C@@H](NC(=O)[C@H](Cc2ccccc2)NC(=O)[C@H](CCC(=O)O)NC(=O)[C@H](CO)NC(C)=O)CSCC[C@@H](C(=O)N(C)CC(=O)N[C@@H](CCC(=O)O)C(=O)NCC(=O)N[C@@H](C)C(=O)N[C@@H](CCCCNC(=O)COCCOCCNC(=O)CC[C@H](NC(=O)COCCOCCNC(=O)CNC(=O)CC[C@H](NC(=O)CCCCCCCCCCCCCCCCC(=O)O)C(=O)O)C(=O)O)C(N)=O)NC(=O)[C@H](CCCNC(=N)N)NC(=O)[C@H](Cc2c[nH]cn2)NC(=O)[C@H](CCC(=O)O)NC(=O)CNC(=O)[C@H](Cc2c[nH]c3ccccc23)NC(=O)[C@H](CC(=O)O)NC(=O)[C@H](CCC(N)=O)NC(=O)[C@H](Cc2cn(C)c3ccccc23)NC1=O [Compound 154, Ac-SEFA(1)I[1-Me-Trp]QDWGEHRhC(1)[Sar]EGA-K([17-carboxy-heptadecanoyl][γGlu]G[Peg3][γGlu][Peg3])-NH2] (Ac-SEFCI[Trp(1-Me)]QDWGEHR[Abu(4-yl)][Sar]EGAK([AEEA-γGlu-AEEA-Gly-γGlu-C18 diacid])-NH2; thioether 4-14)
  IC50: < 100 nM

## CC[C@H](C)[C@@H]1NC(=O)[C@@H](NC(=O)[C@H](Cc2ccccc2)NC(=O)[C@H](CCC(=O)O)NC(=O)CNC(C)=O)CSCC[C@@H](C(=O)N(C)CC(=O)N[C@@H](CCC(=O)O)C(=O)NCC(=O)N[C@@H](CCC(=O)O)C(=O)NCCOCCOCC(=O)N[C@@H](CCC(=O)O)C(=O)N[C@@H](CO)C(=O)N[C@@H](CCCCNC(=O)CC[C@H](NC(=O)CNC(=O)CC[C@H](NC(=O)CCCCCCCCCCCCCCCCC(=O)O)C(=O)O)C(=O)O)C(N)=O)NC(=O)[C@H](CCCNC(=N)N)NC(=O)[C@H](Cc2c[nH]cn2)NC(=O)[C@H](CCC(=O)O)NC(=O)CNC(=O)[C@H](Cc2c[nH]c3ccccc23)NC(=O)[C@H](CCC(=O)O)NC(=O)[C@H](CCC(N)=O)NC(=O)[C@H](Cc2cn(C)c3ccccc23)NC1=O [Compound 155, Ac-GEFA(1)I[1-Me-Trp]QEWGEHRhC(1)[Sar]EGE[Peg3]ES-K([17-carboxy-heptadecanoyl][γGlu]G[γGlu])-NH2] (Ac-GEFCI[Trp(1-Me)]QEWGEHR[Abu(4-yl)][Sar]EGE[AEEA]ESK([γGlu-Gly-γGlu-C18 diacid])-NH2; thioether 4-14)
  IC50: < 100 nM
